Assay: The binding affinity on delta-opioid receptor using [3H]- DPDPE as radioligand

In order of rising Ki:
1. CCCCN1CC[C@]23c4c5ccc(O)c4O[C@H]2c2[nH]c4c(c2C[C@@]3(O)[C@H]1C5)C[C@@]1(O)[C@H]2Cc3ccc(O)c5c3[C@@]1(CCN2CC1CC1)[C@H]4O5 [17-(cyclopropylmethyl)-17'-butyl-6,6',7,7'-tetradehydro-4,5:4',5'-diepoxy-6,6'-imino-7,7'-bimorphinan-3,3',14,14'-tetrol]  15 nM
2. N=C(N)NCCN1CC[C@]23c4c5ccc(O)c4O[C@H]2c2[nH]c4c(c2C[C@@]3(O)[C@H]1C5)C[C@@]1(O)[C@H]2Cc3ccc(O)c5c3C1(CCN2CC1CC1)[C@H]4O5 [17-(cyclopropylmethyl)-17'-(2-guanidinoethyl-6,6',7,7'-tetradehydro-4,5:4',5'-diepoxy-6,6'-imino-7,7'-bimorphinan-3,3',14,14'-tetrol]  37 nM
3. NCCN1CC[C@]23c4c5ccc(O)c4O[C@H]2c2[nH]c4c(c2C[C@@]3(O)[C@H]1C5)C[C@@]1(O)[C@H]2Cc3ccc(O)c5c3[C@@]1(CCN2CC1CC1)[C@H]4O5 [17-(cyclopropylmethyl)-17'-aminoethyl-6,6',7,7'-tetradehydro-4,5:4',5'-diepoxy-6,6'-imino-7,7'-bimorphinan-3,3',14,14'-tetrol]  137 nM

Reference: BindingDB's records for doi:10.1021/jm00036a015 (University of Minnesota, 1994)
